From patent publication US9115101B2 (Genentech, Inc., priority 2012, dated 2015)
Read-outs that look alike come from different tables or passages of the source.

Target: T1, RORc ligand binding domain (Homo sapiens, UniProt P51449)
T1 construct: host or cells: E. coli
T1 sequence (P51449 269-508 limits assumed): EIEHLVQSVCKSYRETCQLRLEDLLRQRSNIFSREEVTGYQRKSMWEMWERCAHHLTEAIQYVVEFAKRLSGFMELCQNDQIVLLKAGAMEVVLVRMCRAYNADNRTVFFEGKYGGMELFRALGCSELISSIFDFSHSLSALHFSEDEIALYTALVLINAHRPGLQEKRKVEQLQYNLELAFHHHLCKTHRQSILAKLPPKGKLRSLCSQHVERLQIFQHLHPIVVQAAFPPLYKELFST
Assay: In Vitro RORc Ligand Binding Assay (25-[3H]hydroxycholesterol radioligand filtration)
Conditions: read-out: RORc IC50

[1] = In Vitro RORc Ligand Binding Assay, Table 4

| IC50 | IC50 [1] | SMILES |
| --- | --- | --- |
| 2790 nM | – | C[C@H]1CCC(c2ccccc2)S(=O)(=O)N1Cc1ccc(N2CCN3C(=O)CNC(=O)[C@@H]3C2)cc1F (stereo partly drawn) [Example 401, (S)-8-[3-Fluoro-4-((3S)-methyl-1,1-dioxo-6-phenyl-[1,2]thiazinan-2-ylmethyl)-phenyl]-hexahydro-pyrazino[1,2-a]pyrazine-1,4-dione] |
| – | 242 nM | C[C@H]1CCC(c2ccccc2)S(=O)(=O)N1Cc1ccc(N2CCc3[nH]ncc3C2)cc1F (single isomer, unassigned) [Example 145] |
| – | 2300 nM | CC(=O)N1CCN(c2ccc(CN3[C@H](C)CC(c4ccccc4)S3(=O)=O)c(F)c2)CC1 (single isomer, unassigned) [Example 65] |
| – | 13 nM | C[C@H]1CCC(c2ccccc2)S(=O)(=O)N1Cc1ccc(OC2CCN(S(C)(=O)=O)CC2)cc1F (single isomer, unassigned) [Example 33] |
| – | 21 nM | C[C@H]1CCC(c2ccccc2)S(=O)(=O)N1Cc1ccc(N2CCC(c3n[nH]c(=O)o3)CC2)cc1F (single isomer, unassigned) [Example 144] |
| – | 30 nM | C[C@H]1CCC(c2ccccc2)S(=O)(=O)N1Cc1ccc(N2CCC(n3cncn3)CC2)cc1F (stereo partly drawn) [Example 215, (3S)-2-[2-Fluoro-4-(4-[1,2,4]triazol-1-yl-piperidin-1-yl)-benzyl]-3-methyl-6-phenyl-[1,2]thiazinane 1,1-dioxide] |
| – | 570 nM | CC(=O)N1CCN(c2ccc(CN3[C@@H](C)CC(c4ccccc4)S3(=O)=O)c(F)c2)CC1 (single isomer, unassigned) [Example 63] |
| – | 501 nM | CC(=O)N1CCN(c2ccc(CN3[C@@H](C)CCC(c4ccccc4)S3(=O)=O)c(C)c2)CC1 (single isomer, unassigned) [Example 131] |
| – | 29 nM | C[C@H]1CCC(c2ccccc2)S(=O)(=O)N1Cc1ccc(N2CCC(c3cc(O)no3)CC2)cc1F (single isomer, unassigned) [Example 152] |
| – | 709 nM | CC(=O)N1CCN(c2ccc(CN3[C@@H](C)CC(c4ccccc4)S3(=O)=O)c(F)c2)CC1 (single isomer, unassigned) [Example 64] |
| – | 17 nM | C[C@H]1CCC(c2ccccc2)S(=O)(=O)N1Cc1ccc(OC2CCN(S(C)(=O)=O)CC2)cc1F (single isomer, unassigned) [Example 32] |
| – | 30 nM | C[C@H]1CCC(c2ccccc2)S(=O)(=O)N1Cc1ccc(N[C@H]2CC[C@H](C#N)CC2)cc1F (single isomer, unassigned) [Example 112] |
| – | 1920 nM | CC(=O)N1CCN(c2ccc(CN3[C@@H](C)CCCC(c4ccccc4)S3(=O)=O)c(F)c2)CC1 (single isomer, unassigned) [Example 320] |
| – | 76 nM | CO[C@@H](C)C(=O)N1CCCN(c2ccc(CN3[C@@H](C)CCC(c4ccccc4)S3(=O)=O)c(F)c2)CC1 (single isomer, unassigned) [Example 90] |
| – | 1090 nM | CC(=O)N1CCN(c2ccc(CN3C(C)CCCC(c4ccccc4)S3(=O)=O)c(F)c2)CC1 (single isomer, unassigned) [Example 328, 1-{4-[3-Fluoro-4-(3-methyl-1,1-dioxo-7-phenyl-[1,2]thiazepan-2-ylmethyl)-phenyl]-piperazin-1-yl}-ethanone] |
| 28 nM | – | C[C@H]1CCC(c2ccccc2)S(=O)(=O)N1Cc1ccc(N2CCN3C(=O)OCC3C2)cc1F (single isomer, unassigned) [Example 420] |
| – | 207 nM | COc1cc(N2CCN(C(C)=O)CC2)ccc1CN1[C@@H](C)CCC(c2ccccc2)S1(=O)=O (single isomer, unassigned) [Example 160] |
| – | 3 nM | CC(=O)N1CCN(c2ccc(CN3[C@@H](C)CCC(c4ccccc4F)S3(=O)=O)c(F)c2)CC1 (single isomer, unassigned) [Example 117] |
| – | 240 nM | CC(=O)N1CCN(c2ccc(CN3[C@@H](C)CCC(c4ccccc4)S3(=O)=O)c(F)c2)C[C@H]1C#N (stereo partly drawn) [Example 385, (S)-1-Acetyl-4-[3-fluoro-4-((3S)-methyl-1,1-dioxo-6-phenyl-[1,2]thiazinan-2-ylmethyl)-phenyl]-piperazine-2-carbonitrile] |
| – | 213 nM | C[C@H]1CCC(c2ccccc2)S(=O)(=O)N1Cc1ccc(N2CCCN(C(=O)CC#N)CC2)cc1F (single isomer, unassigned) [Example 83] |
| – | 6 nM | CC(=O)N1CCN(c2ccc(CN3[C@@H](C)CCC(c4ccccc4)S3(=O)=O)c(F)c2)[C@@H](C)C1 (stereo partly drawn) [Example 237, 1-{4-[3-Fluoro-4-((3S)-methyl-1,1-dioxo-6-phenyl-[1,2]thiazinan-2-ylmethyl)-phenyl]-3-methyl-piperazin-1-yl}-ethanone] |
| – | 82 nM | C[C@H](O)C(=O)N1CCN(c2ccc(CN3[C@@H](C)CCC(c4ccccc4)S3(=O)=O)c(F)c2)CC1 (single isomer, unassigned) [Example 79] |

Continued, molecule first:

| SMILES | IC50 | IC50 [1] |
| --- | --- | --- |
| C[C@H]1CCC(c2ccccc2)S(=O)(=O)N1Cc1ccc(N2CCC(n3cnnc3)CC2)cc1 (single isomer, unassigned) [Example 214] | – | 239 nM |
| COc1ccc(C2CC[C@H](C)N(Cc3ccc(N4CCN(C(C)=O)CC4)cc3F)S2(=O)=O)cc1 (single isomer, unassigned) [Example 177] | – | 147 nM |
| C[C@H]1CCC(c2ccccc2)S(=O)(=O)N1Cc1ccc(OCCN2CCCC2=O)cc1 (stereo partly drawn) [Example 439, 1-{2-[4-((3S)-Methyl-1,1-dioxo-6-phenyl-[1,2]thiazinan-2-ylmethyl)-phenoxy]-ethyl}-pyrrolidin-2-one] | 325 nM | – |
| CC(=O)N1CCN(c2ccc(CN3CC(C)CC(c4ccccc4)S3(=O)=O)c(F)c2)CC1 (single isomer, unassigned) [Example 118, 1-{4-[3-Fluoro-4-(4-methyl-1,1-dioxo-6-phenyl-[1,2]thiazinan-2-ylmethyl)-phenyl]-piperazin-1-yl}-ethanone] | – | 20 nM |
| CC(=O)N1CCN(c2ccc(CN3[C@@H](C)CCC(c4cccc(C#N)c4)S3(=O)=O)c(F)c2)CC1 (single isomer, unassigned) [Example 202] | – | 738 nM |
| CC(=O)N1CCN(c2ccc(CN3CC4(CC4)CC(c4ccccc4)S3(=O)=O)c(F)c2)CC1 (single isomer, unassigned) [Example 199, 1-{4-[4-(6,6-Dioxo-7-phenyl-6-thia-5-aza-spiro[2.5]oct-5-ylmethyl)-3-fluoro-phenyl]-piperazin-1-yl}-ethanone] | – | 14 nM |
| C[C@H]1CCC(c2ccccc2)S(=O)(=O)N1Cc1ccc(C(=O)N(C)C2CCS(=O)(=O)C2)cc1 (stereo partly drawn) [Example 289, N-(1,1-Dioxo-tetrahydro-thiophen-3-yl)-N-methyl-4-((3S)-methyl-1,1-dioxo-6-phenyl-[1,2]thiazinan-2-ylmethyl)-benzamide] | – | 1740 nM |
| C[C@H]1CCC(c2ccccc2)S(=O)(=O)N1Cc1ccc(C(=O)N2CC3COCC3C2)cc1 (stereo partly drawn) [Example 364, [4-((3S)-Methyl-1,1-dioxo-6-phenyl-[1,2]thiazinan-2-ylmethyl)-phenyl]-(tetrahydro-furo[3,4-c]pyrrol-5-yl)-methanone] | – | 2920 nM |
| O=C(CO)N1CCN(c2ccc(CN3CCCCC(c4ccccc4)S3(=O)=O)cc2)CC1 (single isomer, unassigned) [Example 318, 1-{4-[4-(1,1-Dioxo-7-phenyl-[1,2]thiazepan-2-ylmethyl)-phenyl]-piperazin-1-yl}-2-hydroxy-ethanone] | – | 1970 nM |
| CC(=O)N1CCN(c2cnc(CN3[C@@H](C)CCC(c4ccccc4)S3(=O)=O)cn2)CC1 (single isomer, unassigned) [Example 178] | – | 1430 nM |
| CC(=O)N1CCN(c2ccc(CN3CC(C)(C)CC(c4ccccc4)S3(=O)=O)c(F)c2)CC1 (single isomer, unassigned) [Example 168, 1-{4-[4-(4,4-Dimethyl-1,1-dioxo-6-phenyl-[1,2]thiazinan-2-ylmethyl)-3-fluoro-phenyl]-piperazin-1-yl}-ethanone] | – | 1000 nM |
| CC(=O)N1CCN(c2ccc(CN3[C@@H](C)CCC(c4ccccc4)S3(=O)=O)cc2)CC1 (single isomer, unassigned) [Example 40] | – | 81 nM |
| CC(=O)N1CCN(c2ccc(CN3CCCCC(c4ccccc4)S3(=O)=O)c(F)c2)CC1 (single isomer, unassigned) [Example 16, 1-{4-[4-(1,1-Dioxo-7-phenyl-[1,2]thiazepan-2-ylmethyl)-3-fluoro-phenyl]-piperazin-1-yl}-ethanone] | – | 32 nM |
| C[C@H]1CCC(c2ccccc2)S(=O)(=O)N1Cc1ccc(OCC2(C)COC2)cc1 (stereo partly drawn) [Example 448, (3S)-Methyl-2-[4-(3-methyl-oxetan-3-ylmethoxy)-benzyl]-6-phenyl-[1,2]thiazinane 1,1-dioxide] | 656 nM | – |
| CC(=O)N1CCN(c2ccc(CN3[C@@H](C)CCC(c4ccccc4)S3(=O)=O)nc2)CC1 (stereo partly drawn) [Example 67, 1-{4-[6-((3S)-3-Methyl-1,1-dioxo-6-phenyl-[1,2]thiazinan-2-ylmethyl)-pyridin-3-yl]-piperazin-1-yl}-ethanone] | – | 1540 nM |
| CC(=O)N1CCN(c2ccc(CN3CC(C)CC(c4ccccc4)S3(=O)=O)c(F)c2)CC1 (single isomer, unassigned) [Example 119, 1-{4-[3-Fluoro-4-(4-methyl-1,1-dioxo-6-phenyl-[1,2]thiazinan-2-ylmethyl)-phenyl]-piperazin-1-yl}-ethanone] | – | 2 nM |
| C[C@H]1CCC(c2ccccc2)S(=O)(=O)N1Cc1ccc(C(=O)N2C3CCC2C(C(N)=O)C3)cc1 (stereo partly drawn) [Example 355, 7-[4-((3S)-Methyl-1,1-dioxo-6-phenyl-[1,2]thiazinan-2-ylmethyl)-benzoyl]-7-aza-bicyclo[2.2.1]heptane-2-carboxylic acid amide] | – | 510 nM |
| CS(=O)(=O)N1CCC(Nc2ccc(CN3CC4(CC4)CC(c4ccccc4)S3(=O)=O)c(F)c2)CC1 (single isomer, unassigned) [Example 249, 5-(2-fluoro-4-((1-(methylsulfonyl)piperidin-4-yl)amino)benzyl)-7-phenyl-6-thia-5-azaspiro[2.5]octane 6,6-dioxide] | – | 37 nM |
